# Test results from ChEMBL document CHEMBL5614389, “Design, synthesis, and biological evaluation of RSL3-based GPX4 degraders with hydrophobic tags” (Eur J Med Chem, 2024).
# Active and inactive are the calls of the source. No cut-off for these calls is given here.
# Assays:
# HT-1080 [1] = assay: Antiproliferative activity against human HT-1080 cells assessed as inhibition of cell growth incubated for 72 hrs by MTT assay; assay type: functional, cell-based; conditions: HT-1080, 72 h
# HT-1080 [2] = assay: HyT activity at GPX4/E3 ligase in human HT-1080 cells assessed as degradation of GPX4 protein at 0.05 uM incubated for 24 hrs by Western blotting analysis relative to control; assay type: cell-based
# HT-1080 [3] = assay: HyT activity at GPX4/E3 ligase in human HT-1080 cells assessed as degradation of GPX4 protein at 0.2 uM incubated for 24 hrs by Western blotting analysis relative to control; assay type: cell-based
# MDA-MB-231 [4] = assay: Antiproliferative activity against human MDA-MB-231 cells assessed as inhibition of cell growth incubated for 72 hrs by MTT assay; assay type: functional, cell-based; conditions: MDA-MB-231, 72 h
# OS-RC-2 = assay: Antiproliferative activity against human OS-RC-2 cells assessed as inhibition of cell growth incubated for 72 hrs by MTT assay; assay type: functional, cell-based; conditions: OS-RC-2, 72 h
# 786-0 = assay: Antiproliferative activity against human 786-0 cells assessed as inhibition of cell growth incubated for 72 hrs by MTT assay; assay type: functional, cell-based; conditions: 786-0, 72 h
# HT-1080 [5] = assay: HyT activity at GPX4/E3 ligase in human HT-1080 cells assessed as degradation of GPX4 protein at 0.05 uM incubated for 12 hr by Western blotting analysis; assay type: cell-based
# HT-1080 [6] = assay: Induction of ferroptosis in human HT-1080 cells assessed as increase in ROS production at 0.2 to 0.5 uM incubated for 4 hrs in presence of ferrostatin-1 by DCFH-DA dye based flow cytometry; assay type: functional, cell-based; conditions: dose 0.2-0.5 µM
# HT-1080 [7] = assay: HyT activity at GPX4/E3 ligase in human HT-1080 cells assessed as degradation of GPX4 protein at 0.05 uM incubated for 12 hrs by Western blotting analysis relative to control; assay type: cell-based
# HT-1080 [8] = assay: HyT activity at GPX4/E3 ligase in human HT-1080 cells assessed as degradation of GPX4 protein at 0.05 uM incubated for 12 hr in presence of chloroquine by Western blotting analysis; assay type: cell-based
# HT-1080 [9] = assay: HyT activity at GPX4/E3 ligase in human HT-1080 cells assessed as degradation of GPX4 protein at 0.05 uM in presence of cycloheximide by Western blotting analysis; assay type: cell-based; conditions: TDE = time-dependent effect
# HT-1080 [10] = assay: Induction of ferroptosis in human HT-1080 cells assessed as increase in ROS production at 0.2 to 0.5 uM incubated for 4 hrs by DCFH-DA dye based flow cytometry; assay type: functional, cell-based; conditions: dose 0.2-0.5 µM
# HT-1080 [11] = assay: HyT activity at GPX4/E3 ligase in human HT-1080 cells assessed as degradation of GPX4 protein at 0.05 uM measured after 4 hrs in presence of cycloheximide by Western blotting analysis; assay type: cell-based
# HT-1080 [12] = assay: Induction of ferroptosis in human HT-1080 cells assessed as increase in lipid peroxidation at 0.2 to 0.5 uM incubated for 4 hrs in presence of ferrostatin-1 by C11 BODIPY 581/591 dye based flow cytometry; assay type: functional, cell-based; conditions: dose 0.2-0.5 µM
# HT-1080 [13] = assay: Induction of ferroptosis in human HT-1080 cells assessed as increase in lipid peroxidation at 0.2 to 0.5 uM incubated for 4 hrs by C11 BODIPY 581/591 dye based flow cytometry; assay type: functional, cell-based; conditions: dose 0.2-0.5 µM
# HT-1080 [14] = assay: HyT activity at GPX4/E3 ligase in human HT-1080 cells assessed as degradation of GPX4 protein at 0.05 uM incubated for 7 hrs by Western blotting analysis; assay type: cell-based
# HT-1080 [15] = assay: HyT activity at GPX4/E3 ligase in human HT-1080 cells assessed as degradation of GPX4 protein incubated for 24 hrs by Western blotting analysis; assay type: cell-based
# HT-1080 [16] = assay: HyT activity at GPX4/E3 ligase in human HT-1080 cells assessed as degradation of GPX4 protein at 0.05 uM incubated for 20 hrs by Western blotting analysis; assay type: cell-based
# MDA-MB-231 [17] = assay: Antiproliferative activity against human MDA-MB-231 cells assessed as fold increase in inhibition of cell growth incubated for 72 hrs by MTT assay relative to RSL3; assay type: functional
# HT-1080 [18] = assay: HyT activity at GPX4/E3 ligase in human HT-1080 cells assessed as degradation of GPX4 protein at 0.05 uM incubated for 12 hr in presence of MG132 by Western blotting analysis; assay type: cell-based
# [19] = HyT activity at GPX4/E3 ligase in human HT-1080 cells assessed as degradation of GPX4 protein by measuring degradation concentration incubated for 24 hrs by Western blotting analysis; assay type: cell-based; conditions: HT-1080, 24 h
# HT-1080 [20] = assay: HyT activity at GPX4/E3 ligase in human HT-1080 cells assessed as degradation of GPX4 protein at 0.05 uM by Western blotting analysis; assay type: cell-based; conditions: TDE = time-dependent effect
Compound,IC50 (HT-1080 [1]),Activity (HT-1080 [2]),Activity (HT-1080 [3]),further results
COC(=O)[C@H]1Cc2c([nH]c3ccccc23)[C@H](c2ccc(C(=O)NCCCCCCCNC(C)=O)cc2)N1C(=O)CCl,0.38 µM,5%,6%,–
COC(=O)[C@H]1Cc2c([nH]c3ccccc23)[C@H](c2ccc(C(=O)NCCCCCCCCNC(=O)CC34CC5CC(CC(C5)C3)C4)cc2)N1C(=O)CCl,0.163 µM,15%,31%,–
COC(=O)[C@H]1Cc2c([nH]c3ccccc23)[C@H](c2ccc(C(=O)N3CCN(CCCCCCNC(=O)CC45CC6CC(CC(C6)C4)C5)CC3)cc2)N1C(=O)CCl,0.03 µM,44%,70%,–
COC(=O)c1ccc([C@H]2c3[nH]c4ccccc4c3C[C@H](C(=O)OC)N2C(=O)CCl)cc1,0.09 µM,21%,39%,IC50 (MDA-MB-231 [4]): 0.129 µM; IC50 (OS-RC-2): 0.082 µM; IC50 (786-0): 0.047 µM; Activity (HT-1080 [5]): Active
COC(=O)[C@H]1Cc2c([nH]c3ccccc23)[C@H](c2ccc(C(=O)NCCOCCOCCOCCNC(=O)CC34CC5CC(CC(C5)C3)C4)cc2)N1C(=O)CCl,0.498 µM,–,–,–
COC(=O)[C@H]1Cc2c([nH]c3ccccc23)[C@H](c2ccc(C(=O)NCCCCCCCCCCNC(=O)CC34CC5CC(CC(C5)C3)C4)cc2)N1C(=O)CCl,0.036 µM,35%,72%,–
COC(=O)[C@H]1Cc2c([nH]c3ccccc23)[C@H](c2ccc(C(=O)N3CCN(CCCCNC(=O)CC45CC6CC(CC(C6)C4)C5)CC3)cc2)N1C(=O)CCl,0.2 µM,–,–,–
COC(=O)[C@H]1Cc2c([nH]c3ccccc23)[C@H](c2ccc(C(=O)N3CCN(CCNC(=O)CC45CC6CC(CC(C6)C4)C5)CC3)cc2)N1C(=O)CCl,0.071 µM,–,–,–
COC(=O)[C@H]1Cc2c([nH]c3ccccc23)[C@H](c2ccc(C(=O)N3CCN(CCCCCCCCNC(=O)CC45CC6CC(CC(C6)C4)C5)CC3)cc2)N1C(=O)CCl,0.041 µM,35%,58%,–

# More lines, main results first:
IC50 (HT-1080 [1]),Compound,Activity (HT-1080 [2]),Activity (HT-1080 [3]),further results
0.12 µM,COC(=O)[C@H]1Cc2c([nH]c3ccccc23)[C@H](c2ccc(C(=O)NCCOCCNC(=O)CC34CC5CC(CC(C5)C3)C4)cc2)N1C(=O)CCl,–,–,–
0.028 µM,COC(=O)[C@H]1Cc2c([nH]c3ccccc23)[C@H](c2ccc(C(=O)NCCCCCCNC(=O)CC34CC5CC(CC(C5)C3)C4)cc2)N1C(=O)CCl,44%,59%,–
0.122 µM,COC(=O)[C@H]1Cc2c([nH]c3ccccc23)[C@H](c2ccc(C(=O)NCCCCNC(=O)CC34CC5CC(CC(C5)C3)C4)cc2)N1C(=O)CCl,15%,37%,–
0.024 µM,COC(=O)[C@H]1Cc2c([nH]c3ccccc23)[C@H](c2ccc(C(=O)NCCCCCCCNC(=O)CC34CC5CC(CC(C5)C3)C4)cc2)N1C(=O)CCl,47%,78%,Activity (HT-1080 [6]): inactive; Activity (HT-1080 [7]): 50%; Activity (HT-1080 [8]): inactive; Activity (HT-1080 [9]): Tde; Activity (HT-1080 [10]): Active; Activity (HT-1080 [11]): Active; Activity (HT-1080 [12]): inactive; Activity (HT-1080 [13]): Active; IC50 (MDA-MB-231 [4]): 0.032 µM; Activity (HT-1080 [14]): Active; Activity (HT-1080 [15]): Dose-Dependent Effect; IC50 (OS-RC-2): 0.072 µM; IC50 (786-0): 0.046 µM; Activity (HT-1080 [16]): Active; fold change (FC) (MDA-MB-231 [17]): 4; Activity (HT-1080 [18]): inactive; DC50 [19]: 0.019 µM; Activity (HT-1080 [20]): Tde
0.058 µM,COC(=O)[C@H]1Cc2c([nH]c3ccccc23)[C@H](c2ccc(C(=O)NCCNC(=O)CC34CC5CC(CC(C5)C3)C4)cc2)N1C(=O)CCl,33%,52%,–
0.064 µM,COC(=O)[C@H]1Cc2c([nH]c3ccccc23)[C@H](c2ccc(C(=O)NCCCCCNC(=O)CC34CC5CC(CC(C5)C3)C4)cc2)N1C(=O)CCl,20%,38%,–
0.064 µM,COC(=O)[C@H]1Cc2c([nH]c3ccccc23)[C@H](c2ccc(C(=O)NCCOCCOCCNC(=O)CC34CC5CC(CC(C5)C3)C4)cc2)N1C(=O)CCl,–,–,–
